Assay results from ChEMBL document CHEMBL4130576, “Cephanolides A-J, Cephalotane-Type Diterpenoids from Cephalotaxus sinensis” (J Nat Prod, 2017).
Counter-ions that a name gives are not always drawn.

How the values were obtained:
A549 [1] = assay: Cytotoxicity against human A549 cells by SRB assay; assay type: functional, cell-based
HT-29 [2] = assay: Cytotoxicity against human HT-29 cells by SRB assay; assay type: functional, cell-based
HL-60 [3] = assay: Cytotoxicity against human HL60 cells by MTT assay; assay type: functional, cell-based
KB [4] = assay: Cytotoxicity against human KB cells by SRB assay; assay type: functional, cell-based
A549 [5] = assay: Cytotoxicity against human A549 cells assessed as inhibition of cell viability at 10 uM by SRB assay relative to control; assay type: functional
HL-60 [6] = assay: Cytotoxicity against human HL60 cells assessed as inhibition of cell viability at 10 uM by MTT assay relative to control; assay type: functional
HT-29 [7] = assay: Cytotoxicity against human HT-29 cells assessed as inhibition of cell viability at 10 uM by SRB assay relative to control; assay type: functional
KB [8] = assay: Cytotoxicity against human KB cells assessed as inhibition of cell viability at 10 uM by SRB assay relative to control; assay type: functional

Compound | IC50 (A549 [1]) [nM] | IC50 (HT-29 [2]) [nM] | IC50 (HL-60 [3]) [nM] | IC50 (KB [4]) [nM] | inhibition at 10 µM (A549 [5]) [%] | inhibition at 10 µM (HL-60 [6]) [%] | inhibition at 10 µM (HT-29 [7]) [%] | inhibition at 10 µM (KB [8]) [%]
Cc1cc(=O)cc2c3c1[C@@H]1O[C@H]4C5OC(=O)C(CC2)([C@@H]4C)[C@H]3[C@@]51O | 1330 | 817 | 464 | 964 | – | – | – | –
Cc1cc(=O)cc2c3c1C[C@@H]1[C@@H]4C[C@@H](C)C(CC2)(C(=O)O4)[C@]31O | 6090 | 3220 | 1240 | 2650 | – | – | – | –
C[C@@H]1C[C@@H]2OC(=O)C13CC[C@@]14C[C@@H](OC1=O)[C@H](O)[C@](C)(O)C1=C4[C@@H]3[C@@H]2C1 | – | – | – | – | < 50 | < 50 | < 50 | < 50
C=C1[C@H](O)CC[C@@]2(CO)CCC34C(=O)O[C@@H](C[C@H]3C)[C@H]3C[C@H]1[C@@H]2[C@H]34 | – | – | – | – | < 50 | < 50 | < 50 | < 50
Cc1ccc2c3c1C[C@@H]1[C@@H]4C[C@@H](C)C(CC2=O)(C(=O)O4)[C@]31O | – | – | – | – | < 50 | < 50 | < 50 | < 50
C[C@@H]1C[C@@H]2OC(=O)C13CC[C@]14C[C@H](C=C(CO)[C@H]5C[C@H]2[C@H]3[C@@H]51)OC4=O | – | – | – | – | < 50 | < 50 | < 50 | < 50
Cc1cc(=O)cc2c3c1C[C@@H]1[C@@H]4C[C@@H](C)C(C=C2)(C(=O)O4)[C@]31O | – | – | – | – | < 50 | < 50 | < 50 | < 50
Cc1c(O)cc2c3c1[C@@H]1O[C@H]4C5OC(=O)C(CC2)([C@@H]4C)[C@H]3[C@@H]51 | – | – | – | – | < 50 | < 50 | < 50 | < 50
CC1=CCC[C@@]2(CO)CCC34C(=O)O[C@@H](C[C@H]3C)[C@H]3C[C@H]1[C@@H]2[C@H]34 | – | – | – | – | < 50 | < 50 | < 50 | < 50
COC(=O)c1cc(C)c2c3c1C(=O)CC14C(=O)O[C@@H](C[C@H]1C)[C@@H](C2)[C@@]34O | – | – | – | – | < 50 | < 50 | < 50 | < 50
Cc1c(O)cc2c3c1C[C@@H]1[C@@H]4C[C@@H](C)C(CC2)(C(=O)O4)[C@H]31 | – | – | – | – | < 50 | < 50 | < 50 | < 50
CC1=C[C@H]2C[C@]3(CCC45C(=O)O[C@@H](C[C@H]4C)[C@H]4C[C@H]1[C@@H]3[C@H]45)CO2 | – | – | – | – | < 50 | < 50 | < 50 | < 50
COc1cccc2c1C(=O)c1c(O)c3c(c(O)c1C2=O)C[C@@](O)(C(=O)CO)C[C@@H]3O[C@H]1C[C@H](N)[C@H](O)[C@H](C)O1 [DOXORUBICIN HYDROCHLORIDE] | – | 559 | 76 | 570 | – | – | – | –
